The IC50 is the concentration that inhibits the measured activity by half.

Values joined by “and” are separate entries in the source; they are usually repeats but may differ in a detail not shown here. Equal entries are not always repeated. Where two headings read alike, the source gives them in different places. A value given as a limit tells only on which side of the number the result lay.

Series [1] deals with H460 cells. Description: Caspase activation (cleaved caspase-3 and -9), western blot. The format is cell-based, human. As to conditions: 10 μM, 12 h. The procedure: (§1) Figure 3 […]25 inhibited proliferation and induced apoptosis in H460 cells (A) H460 cells were pretreated with compounds at indicated concentrations, followed by the treatment with bFGF (30 ng/mL) for 10 min. The phosphorylation level of FGFR1 in cell lysates was measured by western blot analysis. The column figures show the normalized optical density as a percentage of total FGFR1 control. (B) H460 cells were treated with compounds at concentrations (0.74, 2.22, 6.67, 20, and 60 μM) for 72 h. The MTT assay gives the respective IC50 values of compounds. (C) The time-course cell survival profile of H460 cells treated by compounds at 20 μM was detected through an MTT assay. (D) Effects of […]25 on caspase activation in H460 cells. […] The levels of cleaved caspase-3 and cleaved caspase-9 were determined by western blot analysis.

The test system of series [2] is FGFR1-overexpressing HEK293 cells. In words: bFGF-induced phosphorylation of FGFR1 and ERK, western blot. The format is cell-based. As to conditions: bFGF 30 ng/mL for 10 min, pretreatment with compound. Background: Immunoblotting shows a protein as a band on a membrane.
Description: (C and D) FGFR1 over-expressing 293 cells were pretreated with compounds at indicated concentrations or vehicle (0.1% DMSO), respectively. Then, cells were stimulated with bFGF (30 ng/mL) for 10 min, and the phosphorylation level of FGFR1 and ERK in cell lysates was measured by western blot analysis. The figures were representative of 3 separate experiments (C). […] Statistical significance relative to bFGF alone group was expressed, * P <0.05, ** P < 0.01.
Cells or homogenated tumor tissues were lysated. The protein concentrations in all samples were determined by using the Bradford protein assay kit (Bio-Rad, Hercules, CA). The supernatant was run on 10% SDS-PAGE gel followed by being transferred to a PVDF membrane. After being blocked with 5% non-fat dry milk in TBST for 1.5h, the membrane was incubated with the primary antibody overnight followed by incubation with goat anti-rabbit IgG, HRP-linked antibody for 1 h. The blots were detected with an ECL detection kit (Bio-Rad, Hercules, CA) according to the manufacturer's procedure. The results were analyzed by Quantity One software to determine the relative band density ratio.
The subject of series [3] is H460 cells. In words: bFGF-induced phosphorylation of FGFR1, western blot. The format is cell-based, human. As to conditions: bFGF 30 ng/mL for 10 min, pretreatment with compound. The procedure: as §1
Series [4] deals with H460 cells. In words: MTT anti-proliferation assay. The format is cell-based, human. The following applies: for Time-course cell survival (MTT): 20 μM, 0-72 h; for IC50: Homo sapiens, NCI-H460, 72 h, read-out: IC50 against H460 cells (MTT). The procedure: as §1
(Formazan colour is commonly taken as a measure of viable cells.)

A short description of series [5]: Body weight of mice in H460 xenograft study. The format is in vivo, BALB/cA nude mice. As to conditions: for Change of body weight during treatment: 3 mg/kg/d i.p. for 28 days; for Body weight: 3 mg/kg/d i.p., in g (unit assumed). The procedure: (§2) Figure 4 Anti-tumor effects of compounds […] H460 xenograft models Xenografts were established in nude mice. […] (A) Tumor volume (mm^3) and (B) Tumor weight (g) were recorded (* P <0.05, ** P < 0.01). (C) Body weight of each mice was recorded. (D) pFGFR1 expressions in tumor tissues were detected by Western Blot with FGFR1 as internal control. (E) The levels of p-ERK, p-AKT, Bcl-2, CyclinD1, and COX-2 in tumor tissues were detected by immunohistochemical staining. Representative pictures are shown.

The subject of series [6] is H460 cells. Description: Apoptosis analysis, Annexin V/PI flow cytometry. The format is cell-based, human. As to conditions: 2.5, 5, 10 μM. Background: A flow cytometer gives signals particle by particle.
In series [7] the test system is H460 xenograft. In words: In vivo anti-tumor study, H460 xenograft. As to conditions: for Tumor weight inhibition rate: 3 mg/kg/d i.p. once daily for 28 days; for Tumor volume: 3 mg/kg/d i.p., 28th day, compared to model group. On the set-up: species or system BALB/cA nude mice. The procedure: as §2
Series [8] has as its system H460 xenograft tumor tissue. In words: Protein levels in xenograft tumor tissue (western blot, immunohistochemistry). The format is in vivo, BALB/cA nude mice. The following applies: 3 mg/kg/d i.p.; for Phosphorylated FGFR1 in tumor tissue (western blot): compared to untreated group; for Expression of Bcl-2, Cyclin D1 and cox-2 in tumor tissue (immunohistochemistry): compared with model group. The procedure: as §2

In series [9] the target is T1, FGFR3 (Homo sapiens, UniProt P22607).
T1 construct: purchased Carna Biosciences Inc. (Kobe, Japan)
Description: Cell-free kinase activity assay (Caliper Mobility Shift Assay). The format is biochemical.
Description: (§3) Compounds were performed with caliper mobility shift assay for RTK inhibition, and the IC50 values were calculated using conversion rates. The data were shown as a mean of 3-5 independent tests.
(§4) The activity of tyrosine kinase including FGFR1, FGFR2, FGFR3, EGFR, VEGFR-2, c-MET, and PDGFR-β were tested by Caliper Mobility Shift Assay on Caliper EZ reader (Caliper Life Sciences, MA) according to the instructions provided. […] For each kinase assay, the ATP concentration used in the assay was set at the Km value of the corresponding kinase. […] In the electrophoretic mobility shift assays, product accumulation was expressed as percentage conversion, product peak height/(product peak height + substrate peak height).

Series [10] concerns the target T2, EGFR (Homo sapiens, UniProt P00533).
T2 construct: purchased Carna Biosciences Inc. (Kobe, Japan)
Described as above. The format is biochemical. The following applies: ATP at Km; mean of 3-5 independent tests.
Description: as §3, §4

Series [11] concerns the target T3, VEGFR2 (Homo sapiens, UniProt P35968).
T3 construct: purchased Carna Biosciences Inc. (Kobe, Japan)
Described as above. The format is biochemical. The following applies: ATP at Km; mean of 3-5 independent tests.
Description: as §3, §4

In series [12] the target is c-MET (Homo sapiens, UniProt P08581). The series is described as above. The format is biochemical. As to conditions: ATP at Km; mean of 3-5 independent tests.
Description: as §3, §4
In series [13] the target is T4, PDGFRβ (Homo sapiens, UniProt P09619).
T4 construct: purchased Carna Biosciences Inc. (Kobe, Japan)
The series is described as above. The format is biochemical. The following applies: ATP at Km; mean of 3-5 independent tests.
Description: as §3, §4

Series [14] addresses T5, FGFR1 (Homo sapiens, UniProt P11362).
T5 construct: purchased Carna Biosciences Inc. (Kobe, Japan)
Description: ATP competitive inhibition assay (caliper mobility shift assay). The format is biochemical. As to conditions: ATP 33-4192 μM, substrate constant.
Description: In the experiments for testing the relationship between the compounds and ATP, the concentration of the substrate was constant, while the concentrations of ATP were set at 4192, 2096, 1048, 524, 262, 131, 66, and33 μM. The global competitive inhibition fit for the compounds was performed based on percent conversion = (Vmax*X)/{km*[([1] + I/Ki)^n] + X}, where X is the ATP concentration, and n is the Hill coefficient.

Series [15] addresses T6, FGFR2 (Homo sapiens, UniProt P21802).
T6 construct: purchased Carna Biosciences Inc. (Kobe, Japan)
Description: Cell-free kinase activity assay (Caliper Mobility Shift Assay). The format is biochemical.
Description: as §3, §4

The target of series [16] is T5, FGFR1. The description is as above. As to conditions: ATP at Km; mean of 3-5 independent tests. The format is biochemical.
Description: as §3, §4

T5 sequence (P11362 22-822): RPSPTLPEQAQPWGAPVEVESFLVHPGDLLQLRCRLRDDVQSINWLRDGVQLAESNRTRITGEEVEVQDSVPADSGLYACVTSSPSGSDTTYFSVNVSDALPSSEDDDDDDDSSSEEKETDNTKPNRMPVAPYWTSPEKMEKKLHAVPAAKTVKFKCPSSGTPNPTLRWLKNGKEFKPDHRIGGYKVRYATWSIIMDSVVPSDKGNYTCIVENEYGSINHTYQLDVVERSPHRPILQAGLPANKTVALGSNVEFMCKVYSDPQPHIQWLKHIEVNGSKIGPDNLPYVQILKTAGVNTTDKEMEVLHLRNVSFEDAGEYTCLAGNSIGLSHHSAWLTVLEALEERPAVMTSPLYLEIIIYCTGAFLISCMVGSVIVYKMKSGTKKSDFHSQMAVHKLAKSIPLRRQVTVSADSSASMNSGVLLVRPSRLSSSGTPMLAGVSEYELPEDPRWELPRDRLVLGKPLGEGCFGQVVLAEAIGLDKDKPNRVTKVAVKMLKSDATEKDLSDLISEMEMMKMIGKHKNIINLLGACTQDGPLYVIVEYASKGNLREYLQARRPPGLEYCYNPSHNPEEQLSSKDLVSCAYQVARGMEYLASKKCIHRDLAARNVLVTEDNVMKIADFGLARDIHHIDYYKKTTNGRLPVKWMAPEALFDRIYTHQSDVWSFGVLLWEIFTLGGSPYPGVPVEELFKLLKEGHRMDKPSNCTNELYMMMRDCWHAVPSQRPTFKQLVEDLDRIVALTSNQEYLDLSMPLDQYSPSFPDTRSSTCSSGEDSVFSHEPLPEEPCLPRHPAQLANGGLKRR
T2 sequence (P00533 25-1210): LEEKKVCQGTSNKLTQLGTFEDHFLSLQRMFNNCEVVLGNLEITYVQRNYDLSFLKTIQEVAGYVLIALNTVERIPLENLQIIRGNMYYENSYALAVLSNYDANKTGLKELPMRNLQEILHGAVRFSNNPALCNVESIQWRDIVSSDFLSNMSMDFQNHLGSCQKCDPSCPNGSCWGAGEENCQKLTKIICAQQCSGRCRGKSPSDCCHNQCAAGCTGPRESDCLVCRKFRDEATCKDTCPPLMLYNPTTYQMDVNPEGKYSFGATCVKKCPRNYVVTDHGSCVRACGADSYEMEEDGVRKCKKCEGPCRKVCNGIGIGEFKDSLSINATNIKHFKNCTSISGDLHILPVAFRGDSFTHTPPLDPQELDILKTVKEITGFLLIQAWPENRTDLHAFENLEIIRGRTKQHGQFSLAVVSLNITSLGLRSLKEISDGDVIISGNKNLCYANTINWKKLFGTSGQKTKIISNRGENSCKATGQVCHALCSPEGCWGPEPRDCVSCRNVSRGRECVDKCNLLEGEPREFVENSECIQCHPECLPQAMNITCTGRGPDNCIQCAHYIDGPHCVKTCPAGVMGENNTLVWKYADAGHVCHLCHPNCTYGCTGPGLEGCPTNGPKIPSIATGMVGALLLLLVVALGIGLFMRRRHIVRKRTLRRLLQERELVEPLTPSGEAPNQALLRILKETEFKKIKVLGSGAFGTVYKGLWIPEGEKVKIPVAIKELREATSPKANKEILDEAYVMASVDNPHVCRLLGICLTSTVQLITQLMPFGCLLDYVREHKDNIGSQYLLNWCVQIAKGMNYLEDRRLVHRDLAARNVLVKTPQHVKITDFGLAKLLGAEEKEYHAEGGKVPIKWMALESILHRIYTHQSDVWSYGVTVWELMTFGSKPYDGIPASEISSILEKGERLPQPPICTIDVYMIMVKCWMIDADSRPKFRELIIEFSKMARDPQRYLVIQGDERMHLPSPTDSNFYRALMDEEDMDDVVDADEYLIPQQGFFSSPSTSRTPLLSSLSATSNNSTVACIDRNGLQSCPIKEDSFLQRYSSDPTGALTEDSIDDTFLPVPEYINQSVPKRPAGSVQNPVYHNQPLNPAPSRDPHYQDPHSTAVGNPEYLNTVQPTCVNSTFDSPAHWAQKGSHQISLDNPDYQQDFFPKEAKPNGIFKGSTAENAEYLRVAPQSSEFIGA
Chain of c-MET (P08581 25-1390): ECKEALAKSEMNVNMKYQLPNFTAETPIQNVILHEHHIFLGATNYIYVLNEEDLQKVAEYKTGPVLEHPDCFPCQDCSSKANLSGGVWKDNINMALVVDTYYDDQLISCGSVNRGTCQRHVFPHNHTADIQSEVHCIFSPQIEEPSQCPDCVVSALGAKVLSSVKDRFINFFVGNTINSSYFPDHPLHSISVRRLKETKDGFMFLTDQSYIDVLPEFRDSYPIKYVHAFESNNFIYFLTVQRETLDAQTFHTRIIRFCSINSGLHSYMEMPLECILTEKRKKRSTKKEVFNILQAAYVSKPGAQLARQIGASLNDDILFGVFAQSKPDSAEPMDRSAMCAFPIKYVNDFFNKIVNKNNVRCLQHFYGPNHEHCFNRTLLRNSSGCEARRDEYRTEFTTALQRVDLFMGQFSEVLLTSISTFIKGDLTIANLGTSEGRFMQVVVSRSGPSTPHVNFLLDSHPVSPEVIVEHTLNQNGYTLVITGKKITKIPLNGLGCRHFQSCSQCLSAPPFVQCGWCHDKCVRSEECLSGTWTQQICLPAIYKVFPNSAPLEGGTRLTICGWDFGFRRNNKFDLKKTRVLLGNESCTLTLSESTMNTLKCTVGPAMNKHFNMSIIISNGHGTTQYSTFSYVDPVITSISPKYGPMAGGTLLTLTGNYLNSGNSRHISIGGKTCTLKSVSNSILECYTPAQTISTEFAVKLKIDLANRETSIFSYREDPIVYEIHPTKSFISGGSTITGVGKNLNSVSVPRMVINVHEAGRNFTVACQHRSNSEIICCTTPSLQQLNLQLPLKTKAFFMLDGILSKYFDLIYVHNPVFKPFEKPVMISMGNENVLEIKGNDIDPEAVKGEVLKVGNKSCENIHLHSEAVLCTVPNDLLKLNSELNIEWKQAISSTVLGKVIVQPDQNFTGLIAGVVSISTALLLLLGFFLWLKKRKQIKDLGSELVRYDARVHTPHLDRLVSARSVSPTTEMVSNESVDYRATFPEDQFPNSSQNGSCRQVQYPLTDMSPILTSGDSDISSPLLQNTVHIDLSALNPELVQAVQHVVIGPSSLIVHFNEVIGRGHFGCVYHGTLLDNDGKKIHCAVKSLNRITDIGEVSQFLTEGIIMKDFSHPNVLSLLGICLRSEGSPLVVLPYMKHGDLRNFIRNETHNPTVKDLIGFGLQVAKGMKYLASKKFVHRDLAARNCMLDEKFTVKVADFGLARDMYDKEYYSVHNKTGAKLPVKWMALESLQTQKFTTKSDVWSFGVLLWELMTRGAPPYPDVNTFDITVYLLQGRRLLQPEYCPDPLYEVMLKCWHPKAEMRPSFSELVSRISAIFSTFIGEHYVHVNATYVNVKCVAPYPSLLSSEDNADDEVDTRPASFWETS
T6 sequence (P21802 22-821): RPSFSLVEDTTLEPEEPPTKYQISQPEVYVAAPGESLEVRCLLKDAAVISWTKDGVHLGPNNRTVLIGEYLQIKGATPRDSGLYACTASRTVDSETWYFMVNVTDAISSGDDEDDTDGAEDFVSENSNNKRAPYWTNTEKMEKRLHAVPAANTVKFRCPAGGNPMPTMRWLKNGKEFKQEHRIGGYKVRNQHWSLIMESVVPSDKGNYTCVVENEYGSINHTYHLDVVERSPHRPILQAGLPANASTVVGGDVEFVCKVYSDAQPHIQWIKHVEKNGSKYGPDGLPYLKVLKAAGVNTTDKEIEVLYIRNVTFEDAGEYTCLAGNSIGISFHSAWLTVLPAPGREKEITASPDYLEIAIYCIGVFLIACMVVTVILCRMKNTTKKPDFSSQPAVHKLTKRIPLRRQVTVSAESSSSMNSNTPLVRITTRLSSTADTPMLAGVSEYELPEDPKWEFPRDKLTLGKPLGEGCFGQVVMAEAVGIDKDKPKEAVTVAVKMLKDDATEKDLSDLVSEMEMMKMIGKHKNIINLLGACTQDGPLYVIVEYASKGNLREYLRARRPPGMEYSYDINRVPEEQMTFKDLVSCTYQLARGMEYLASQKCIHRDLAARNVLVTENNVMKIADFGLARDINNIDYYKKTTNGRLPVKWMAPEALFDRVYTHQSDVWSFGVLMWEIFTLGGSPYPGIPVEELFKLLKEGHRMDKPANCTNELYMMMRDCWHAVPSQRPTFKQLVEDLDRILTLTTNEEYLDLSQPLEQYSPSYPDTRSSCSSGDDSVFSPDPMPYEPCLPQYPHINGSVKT
T1 sequence (P22607 23-806): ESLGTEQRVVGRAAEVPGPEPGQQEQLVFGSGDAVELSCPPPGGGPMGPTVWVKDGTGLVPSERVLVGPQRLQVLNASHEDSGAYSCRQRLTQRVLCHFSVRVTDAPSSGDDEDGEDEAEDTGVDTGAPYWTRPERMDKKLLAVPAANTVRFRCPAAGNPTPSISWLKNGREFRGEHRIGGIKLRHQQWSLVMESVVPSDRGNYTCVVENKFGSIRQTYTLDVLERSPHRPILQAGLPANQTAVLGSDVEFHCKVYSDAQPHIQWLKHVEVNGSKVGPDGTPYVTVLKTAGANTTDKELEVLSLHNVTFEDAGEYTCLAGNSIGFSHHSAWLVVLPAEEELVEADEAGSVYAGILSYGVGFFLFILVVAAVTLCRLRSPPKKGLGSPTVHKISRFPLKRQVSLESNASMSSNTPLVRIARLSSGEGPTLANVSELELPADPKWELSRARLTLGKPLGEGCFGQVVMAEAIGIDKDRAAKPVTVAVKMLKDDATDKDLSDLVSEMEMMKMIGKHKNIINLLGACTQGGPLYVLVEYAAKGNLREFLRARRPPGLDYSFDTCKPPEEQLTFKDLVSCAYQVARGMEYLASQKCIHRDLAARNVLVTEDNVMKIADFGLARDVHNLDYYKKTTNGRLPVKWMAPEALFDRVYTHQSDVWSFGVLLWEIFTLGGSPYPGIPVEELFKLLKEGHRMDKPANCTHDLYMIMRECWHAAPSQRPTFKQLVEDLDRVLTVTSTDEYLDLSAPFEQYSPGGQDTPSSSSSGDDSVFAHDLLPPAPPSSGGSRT

Take `O=C1/C(=C/c2ccccc2Cl)CNC/C1=C\c1ccccc1Cl` [Aea4]: in series [1], the “Expression of cleaved caspase 3 and 9” value is “significantly increased”. Also, the “Phosphorylation of FGFR1 and ERK” value in [2] was “inhibited their phosphorylation of FGFR1 and ERK in a dose-dependent manner”. Also, the “Phosphorylation of FGFR1” value in series [3] was “inhibited this effect in a dose-dependent fashion”. In addition, in series [4], the “Time-course cell survival (MTT)” value was “inhibit cell proliferation and increase cell death of H460 time-dependently”; the IC50 was determined as 5 µM. Further, the “Change of body weight during treatment” value in series [5] is listed as “no obvious change”. Further, the Body weight in series [5] (Week 1st) worked out at 23.37 ± 0.73. The molecule further registered a Body weight in [5] (Week 2nd) of 24.94 ± 0.83. In [5] (Week 3rd), this molecule gave a Body weight of 25.81 ± 0.85. In [5] (Week 4th), this molecule gave a Body weight of 24.94 ± 0.79. Also, the Apoptotic cell rate result in series [6] was “induced H460 cell apoptosis in a dose-dependent manner”. Besides, in series [7], the “Tumor weight inhibition rate” value came to 55.0% and the Tumor volume result is “significant reduction in tumor volume at the 28th day”. Moreover, in [8], the “Phosphorylated FGFR1 in tumor tissue (western blot)” value is on record as “decreased expression of phosphorylated FGFR1”; the “Expression of Bcl-2, Cyclin D1 and cox-2 in tumor tissue (immunohistochemistry)” value was “effectively restrained the expression of Bcl-2, Cyclin D1 and cox-2”.
Consider `O=C1/C(=C/c2ccccc2Br)CNC/C1=C\c1ccccc1Br` [Aea25], for which the IC50 in series [9] turned out to be 43.2 µM; in series [10], 33.3 µM; in series [4] it was 5.8 µM; in series [11], 28.6 µM; in [12], 8.2 µM; in [13], 84 µM. The IC50 in series [15] is 43.3 µM; in [16], 8.8 µM and 6.5 µM. Further, the “Expression of cleaved caspase 3 and 9” value in [1] was “significantly increased”. Also, the “Phosphorylation of FGFR1 and ERK” value in [2] was “inhibited their phosphorylation of FGFR1 and ERK in a dose-dependent manner”. In addition, in [3], the “Phosphorylation of FGFR1” value is on record as “inhibited this effect in a dose-dependent fashion”. Further, in series [4], the “Time-course cell survival (MTT)” value is “inhibit cell proliferation and increase cell death of H460 time-dependently”. For the same molecule, in series [5], the “Change of body weight during treatment” value is listed as “no obvious change”. The Body weight in series [5] (Week 1st) came out at 22.01 ± 0.75; in [5] (Week 2nd), 24.02 ± 0.53; in series [5] (Week 3rd), 25.26 ± 0.38; in [5] (Week 4th), 25.36 ± 0.51. Moreover, the Apoptotic cell rate result in series [6] is “induced H460 cell apoptosis in a dose-dependent manner”. Besides, in series [14], the “Effect of increased ATP concentration on FGFR1 inhibition (mode of inhibition)” value is “ATP independent manner”. Besides, in [7], the “Tumor weight inhibition rate” value came to 66.5%. For the same molecule, the Tumor volume entry in series [7] is recorded as “significant reduction in tumor volume at the 28th day”. Further, the “Phosphorylated FGFR1 in tumor tissue (western blot)” value in series [8] is recorded as “decreased expression of phosphorylated FGFR1”. In addition, in [8], the “Expression of Bcl-2, Cyclin D1 and cox-2 in tumor tissue (immunohistochemistry)” value is “effectively restrained the expression of Bcl-2, Cyclin D1 and cox-2”.
With `C[C@H](Cc1ccc(O)c(O)c1)[C@@H](C)Cc1ccc(O)c(O)c1` [NDGA, Nordihydroguaiaretic acid, reference compound], the IC50 was 72.4 µM in series [9] (ATP at Km, mean of 3-5 independent tests, read-out: IC50 FGFR3); 89.9 µM in [10]; 15.6 ± 1.2 µM in [4]; greater than 100 µM in [11]; greater than 100 µM in series [12]; greater than 100 µM in series [13]. The IC50 is greater than 100 µM in series [15] (ATP at Km, mean of 3-5 independent tests, read-out: IC50 FGFR2) and 24.5 µM in series [16]. In addition, in series [14], the “Effect of increased ATP concentration on FGFR1 inhibition (mode of inhibition)” value is listed as “did not affect the rate of FGFR1 substrate phosphorylation”.

The record behind these values is article PMC4147344, “Discovery of novel non-ATP competitive FGFR1 inhibitors and evaluation of their anti-tumor activity in non-small cell lung cancer in vitro and in vivo” (Oncotarget, 2014).
